# Marks after values point to notes of the source that are not given here.
# Legend:
# Tau = Tau (Homo sapiens, UniProt P10636); experiment: Tau competition binding in human AD brain homogenate with 18F-labeled Tau binder; set-up: High affinity to Tau (IC50 in AD brain homogenate): key: −: poor; ∘: moderate; +: good; ++: very good; +++: excellent; settings: determined with non-radioactive F-1, F-2, F-3a; for IC50: human AD brain homogenate, read-out: IC50 for tau binding in AD brain homogenate
# Experimental: (§1) 20 μg of human Alzheimer disease brain homogenate was incubated with a dilution series of each test compound (1000 to 0.06 nM) in the presence of 800 Bq of ^18F-labeled Tau binder. The samples were shaken at 110 rpm for 45 min at 37° C. Samples were then filtered through GF/B 96 well filter plates and washed twice with 300 μL assay buffer (PBS containing 0.1% BSA and 2% DMSO). Thereafter, filter plates were sealed and a Fuji Film Imaging Plate (BAS-SR2025) was placed on top. The imaging plate was analyzed after overnight exposition using a Fuji Film BAS-5000. Non-specific signal was determined with samples containing ^18F-labeled Tau-reference binder in the presence of assay buffer without brain substrate and competitor. […] The unblocked ^18F-labeled Tau-binder signal was defined as total binding. IC50 values were calculated by Prism V6 (GraphPad) setting total binding to 100%.
# amyloid-beta = amyloid-beta (Homo sapiens, UniProt P05067); experiment: Binding affinity to amyloid-beta in AD brain homogenate; settings: non-radioactive derivatives; for IC50: human AD brain homogenate
# Sequence of amyloid-beta (P05067 672-711 limits assumed): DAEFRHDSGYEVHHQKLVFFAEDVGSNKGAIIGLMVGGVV
# Experimental: as §1, with “beta-amyloid” for “Tau”, “beta-amyloid” for “Tau-reference”, “beta-amyloid binder” for “Tau-binder”
# MAO A = target: T1, MAO A (Mus musculus, UniProt Q64133); experiment: MAO A 18F-FEH competition assay in mouse brain homogenate; format: binding; set-up: Low affinity to MAO A (IC50 in mouse brain homogenate): key to the marks not given beside the values; settings: for IC50: 18F-FEH competition, read-out: IC50 MAO A in mouse brain homogenate
# T1 construct: from tissue; host or cells: whole mouse brain homogenate
# T1 sequence (Q64133 1-526): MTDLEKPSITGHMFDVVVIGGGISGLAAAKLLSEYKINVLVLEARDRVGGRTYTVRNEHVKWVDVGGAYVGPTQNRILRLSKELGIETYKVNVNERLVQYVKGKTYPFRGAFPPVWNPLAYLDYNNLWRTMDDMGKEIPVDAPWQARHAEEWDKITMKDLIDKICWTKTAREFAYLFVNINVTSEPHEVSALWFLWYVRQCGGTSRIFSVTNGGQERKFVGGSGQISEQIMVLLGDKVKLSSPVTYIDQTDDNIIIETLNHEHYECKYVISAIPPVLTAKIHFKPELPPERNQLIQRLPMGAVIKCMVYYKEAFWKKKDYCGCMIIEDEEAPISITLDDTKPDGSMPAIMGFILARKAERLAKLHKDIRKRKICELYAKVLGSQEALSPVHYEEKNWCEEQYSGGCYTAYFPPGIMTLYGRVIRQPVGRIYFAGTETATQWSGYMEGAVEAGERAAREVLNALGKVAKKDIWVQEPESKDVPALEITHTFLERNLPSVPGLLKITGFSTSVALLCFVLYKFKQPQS
# MAO B = target: T2, MAO B (Homo sapiens, UniProt P27338); experiment: MAO B 18F-fluoro deprenyl competition assay in human HC brain homogenate; format: binding; set-up: Low affinity to MAO B (IC50 in HC homogenate): key: −: poor; ∘: moderate; +: good; ++: very good; +++: excellent
# T2 construct: 20 μg of human brain homogenate (without AD pathology); from tissue; host or cells: human brain homogenate without AD pathology (healthy control)
# T2 sequence (P27338 1-520): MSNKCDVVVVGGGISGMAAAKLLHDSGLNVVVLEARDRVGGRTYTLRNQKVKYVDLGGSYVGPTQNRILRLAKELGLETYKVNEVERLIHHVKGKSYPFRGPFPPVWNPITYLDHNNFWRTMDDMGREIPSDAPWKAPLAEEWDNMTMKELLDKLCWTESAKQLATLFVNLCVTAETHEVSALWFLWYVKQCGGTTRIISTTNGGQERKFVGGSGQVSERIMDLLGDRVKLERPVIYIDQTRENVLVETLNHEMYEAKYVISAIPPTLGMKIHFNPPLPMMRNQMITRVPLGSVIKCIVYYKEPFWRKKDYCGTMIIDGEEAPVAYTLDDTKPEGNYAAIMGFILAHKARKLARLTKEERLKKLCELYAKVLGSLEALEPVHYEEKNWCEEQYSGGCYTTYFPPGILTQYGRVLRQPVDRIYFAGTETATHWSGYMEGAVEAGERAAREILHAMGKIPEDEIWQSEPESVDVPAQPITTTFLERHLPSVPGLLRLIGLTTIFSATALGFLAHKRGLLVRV
# Experimental: The samples were shaken at 110 rpm for 45 min at 37° C. Samples were then filtered through GF/B 96 well filter plates and washed twice with 300 μL assay buffer (PBS containing 0.1% BSA and 2% DMSO). Thereafter, filter plates were sealed and a Fuji Film Imaging Plate (BAS-SR2025) was placed on top. The imaging plate was analyzed after overnight exposition using a Fuji Film BAS-5000. […] IC50 values were calculated by Prism V6 (GraphPad) setting total binding to 100%.
# [1] = PK studies in healthy mice (PET); format: in vivo, NMRI mice; set-up: Good brain uptake / Fast washout from healthy brain: key: −: poor; ∘: moderate; +: good; ++: very good; +++: excellent; settings: for Low retention in healthy brain / Good brain uptake / Low or minor de-fluorination / Fast washout from healthy brain: grade; for Low retention in healthy brain: healthy mice 60 min after iv injection; for Good brain uptake: healthy mice after iv injection; for Low or minor de-fluorination: bone uptake in healthy mice at 60 min; for Fast washout from healthy brain: healthy mice; for De-fluorination in mice (in words): mouse, in vivo; for Good brain uptake: key: −: poor; ∘: moderate; +: good; ++: very good; +++: excellent; for Low or minor de-fluorination: key: −: poor; ∘: moderate; +: good; ++: very good; +++: excellent; for Low retention in healthy brain: key: −: poor; ∘: moderate; +: good; ++: very good; +++: excellent
# Experimental: NMRI mice (weight range 25-35 g) were injected intravenously with the ^18F-labeled compounds. Up to 150 μL of 1×PBS solution with 10%-15% EtOH or dilution medium ([…]) containing the ^18F-labeled compound (2-10 MBq) were injected. Anesthesia with isoflurane was induced before injection of the tracer and maintained during the image acquisition period. PET scans were performed using a SIEMENS INVEON small animal PET/CT scanner (Siemens, Knoxville, Tenn.). PET acquisition was started immediately before the radioactive dose was injected into the animal through the tail vein. Images were generated as dynamic scans for 60 minutes.
# The peak uptake in the brain was set to 100% and washout curves were generated to evaluate the clearance of the activity from the normal brain (FIG. 2).
# [2] = grade, non-radioactive derivatives
# Sequence of Tau (P10636 623-708 limits assumed): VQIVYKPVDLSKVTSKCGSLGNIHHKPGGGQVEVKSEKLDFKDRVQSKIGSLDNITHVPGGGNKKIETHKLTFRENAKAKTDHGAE
SMILES,IC50 (Tau),IC50 (amyloid-beta),IC50 (MAO A; non-radioactive derivatives),IC50 (MAO B),Low retention in healthy brain [1],Good brain uptake [1],Low or minor de-fluorination [1],Fast washout from healthy brain [1],De-fluorination in mice (in words) [1],High affinity to Tau (IC50 in AD brain homogenate) (Tau; grade),Low affinity to amyloid-beta (IC50 in AD brain homogenate) (amyloid-beta; grade),Low affinity to MAO A (IC50 in mouse brain homogenate) (MAO A; [2]),Fold higher MAO A IC50 than compound 18F-1 (MAO A; whole mouse brain homogenate),Fold higher MAO A IC50 than compound 18F-2 (MAO A; whole mouse brain homogenate),Fold higher MAO B IC50 than compound 18F-1 (MAO B; HC brain homogenate),Low affinity to MAO B (IC50 in HC homogenate) (MAO B; [2]),Fold faster washout from healthy brain than 18F-1 ([1]; mice),Fold lower long-term retention in healthy brain than 18F-1 ([1]; mice),Fold lower long-term retention in healthy brain than 18F-2 ([1]; mice)
[18F]c1ccc(-c2ccc3c(c2)[nH]c2ccncc23)cn1 [^18F-1],< 2 nM,> 1000 nM,22 nM,170 nM,−,++,,,,,,,,,,,,,
[18F]c1ccc(-c2ccc3c(n2)[nH]c2ccncc23)cn1 [^18F-2],< 2 nM,> 1000 nM,475 nM,> 1000 nM,,++,−,++,De-fluorination in mice was found,,,,,,,,,,
[18F]c1cc(-c2ccc3c(n2)[nH]c2ccncc23)ccn1 [^18F-3a],< 2 nM,> 1000 nM,1400 nM,> 1000 nM,++,++,+++,++,No de-fluorination,+++,+++^a),+++,64 fold,3 fold,> 5 fold,+++,1.6 fold,2.7 fold,2 fold
